Data reported in US20240043394A1, “PROTEASOME ENHANCERS AND USES THEREOF” (Board of Trustees of Michigan State University, priority 2020, published 2024).

Assays:
[1] = target: T1, purified human 20S proteasome (Homo sapiens, UniProt P25787+P60900); assay: 20S proteasome small peptide assay, combination of all three fluorogenic substrates (CT-L/Casp-L/T-L); format: biochemical; parameters: key to 20S proteasome activation, classed in words: compounds that exhibit a maximum fold enhancement of <2 fold (i.e. <200%) at a concentration >20 μM were considered inactive; conditions: for AC200 CT-L/Casp-L/T-L: concentration needed to double (200%) the rate of substrate degradation vs vehicle; for AC200 CT-L/Casp-L/T-L / Max Fold CT-L/Casp-L/T-L: three probes combined; for Max Fold CT-L/Casp-L/T-L: maximum fold rate increase vs vehicle control; for 20S proteasome activation, classed in words: concentrations tested 1.25 μM to 80 μM
T1 construct: purchased Boston Biochem or Life Sensors E-360 or ps020
Description: (§1) In vitro testing, 20S activation: The 20S proteasome activity of the compounds was assessed by utilizing the standard fluorogenic 7-amino-methylcoumarin (AMC) conjugated small peptide substrates that correspond to each of the catalytic sites in the 20S proteasome: chymotryptic-like site (Suc-LLVY-AMC), caspase-like site (Z-LLE-AMC), and trypsin-like site (Boc-LRR-AMC). When the small peptide substrate is degraded by the 20S proteasome, the AMC fluorophore is released and quantified to measure the rate of proteolytic cleavage. The 20S proteasome activity of the small molecules was evaluated at varying concentrations to determine the concentration at which the rate of proteolysis was doubled (i.e. the concentration needed to induce 200% activity) compared to the vehicle control (hereafter named as AC200). Concentrations ranging from 1.25 μM to 80 μM of each of compound were added to wells that contained 0.5 nM of purified human proteasome.
(§2) The overall enhancement of the rate of proteolysis of the 20S proteasome by a small molecule was first evaluated by adding a combination of all three peptide substrates to the treated sample. The combination of all three substrates represents a more accurate measurement of proteolytic activity of the proteasome because the catalytic sites housed in the β ring of the 20S proteasome communicate through allosteric interactions. For example, when a protein substrate encounters the chymotryptic-like site, a conformational change will occur activating the caspase-like site.^61 The individual contribution of each of the three catalytic sites was subsequently evaluated by adding only the corresponding peptide probes to gain insight into the contribution of each site on the overall enhanced proteolytic activity.
(§3) The fluorescent output, due to release of the AMC fluorophore, was then converted to the fold increase compared to a vehicle control sample, and the AC200 was calculated. […] (Table 1).
(§4) AC200 represents the concentration needed to double (e.g., 200%) the rate of substrate degradation compared to vehicle control. Max fold is the maximum fold rate increase compared to vehicle control.
(§5) 20S Proteasome Small Peptide Assay: Activity assays were carried out in a black flat/clear bottom 96 well plate with a […] volume. Concentrations of the potential activators, varying from 80 μM to 1.25 μM, were added to the well that contained 1 nM 20S proteasome purchased from either Boston Biochem (catalog number E-360) or Life Sensors (catalog number ps020), in a […] buffer at a pH of 7.8. This solution was left to incubate at 37° C. for 15 minutes. For the assay for the overall proteasome activity, 13.33 μM of each small peptide substrate is added. The 96 well plate is then placed into a plate reader (SpectraMax M5e spectrometer) and the plate reader will take a fluorescent reading every 5 minutes for an hour at 37° C. The enzymatic activity of the 20S proteasome is quantified using the fluorescent output at 380-460 nm, which is converted to max fold increase over the untreated sample. The activity of the individual catalytic assays is identical to the assay that assesses the overall activity of the 20S proteasome except only one small peptide substrate is added. To evaluate the activity of the CT-L and the Casp-L sites, 10 μM of the Suc-LLVY-AMC (Boston Biochem S-280) and Z-LLE-AMC (Boston Biochem S-230) were added, respectively. To evaluate the activity of the T-L site, 20 μM of the Boc-LRR-AMC (Boston Biochem S-300) is added.

[2] = target: T2, purified human 20S proteasome, Casp-L site (Homo sapiens, UniProt P25787+P60900); assay: 20S proteasome small peptide assay, Z-LLE-AMC caspase-like probe; format: biochemical; conditions: for AC200 Casp-L site: concentration needed to double rate vs vehicle; for Max Fold Casp-L site: maximum fold rate increase vs vehicle
T2 construct: purchased Boston Biochem or Life Sensors E-360 or ps020
Description: as §1, §2, §3, §4, §5

[3] = target: T3, purified human 20S proteasome, T-L site (Homo sapiens, UniProt P25787+P60900); assay: 20S proteasome small peptide assay, Boc-LRR-AMC trypsin-like probe; format: biochemical; conditions: for AC200 T-L site: concentration needed to double rate vs vehicle; for Max Fold T-L site: maximum fold rate increase vs vehicle
T3 construct: purchased Boston Biochem or Life Sensors E-360 or ps020
Description: as §1, §2, §3, §4, §5

[4] = target: T4, purified human 20S proteasome, CT-L site (Homo sapiens, UniProt P25787+P60900); assay: 20S proteasome small peptide assay, Suc-LLVY-AMC chymotryptic-like probe; format: biochemical; conditions: for AC200 CT-L site: concentration needed to double rate vs vehicle; for Max Fold CT-L site: maximum fold rate increase vs vehicle
T4 construct: purchased Boston Biochem or Life Sensors E-360 or ps020
Description: as §1, §2, §3, §4, §5

[5] = tested on: A53T mutant α-synuclein in Hek-293T cells; assay: In cell degradation of A53T α-synuclein (Western blot); format: cell-based; conditions: 10 μM, 10 hours
Description: Error bars denote standard deviation. One-way ANOVA statistical analysis was used to determine statistical significance (ns=not significant, *p<0.05, **p<0.01, ***p<0.001, ****p<0.0001) (FIG. 4B).
Cellular efficacy: The A53T mutation of α-synuclein has been linked to early on-set familial Parkinson's disease and appears to oligomerize faster than the wild-type protein. […] Hek-293T cells were transiently transfected with an inducible Tet-One A53T mutant α-synuclein. The cells were treated with 100 ng/mL of doxycycline to induce the production of the A53T mutant. […] The cells were then lysed and the remaining A53T α-synuclein was visualized and quantified via Western Blotting (FIG. 4, n=4).
In cell degradation of A53T α-synuclein: In a 6 well plate, Hek293T cells were grown to 80% confluency and then transfected using Xfect biopolymer transfection system with the Tet-One A53T α-synuclein plasmid. 24 hours post transfection, 100 ng/mL of doxycycline was added to induce A53T α-synuclein expression. After 24 hours of protein induction, media was removed that contained the doxycycline and was washed with PBS. Media with the desired drug concentration or DMSO was added and treated for 10 hours. After the cells were treated with the test compounds or DMSO, the cells were scraped and the pelleted (300 g for 5 minutes). The supernatant was taken off and the cell pellet was washed with ice cold PBS and then lysed with RIPA buffer with added protease inhibitors. The cell lysate was incubated for 20 minutes on ice. The lysate was centrifuged for 15 minutes at 500 g and then the supernatant was collected. Concentrated SDS loading buffer was added and the samples were boiled for 10 minutes. The samples were then resolved on a 4-20% Tris-glycine SDS-PAGE gel and immunoblotted with mouse monoclonal anti α-synuclein IgG (1:2000) and anti-mouse HRP-linked IgG (1:2000). Blots were developed with ECL Westem reagent and imaged with an Azure Biosystems 3000 imager.

Row | AC200 CT-L/Casp-L/T-L [1] [µM] | Max Fold CT-L/Casp-L/T-L [1] [fold] | AC200 Casp-L site [2] [µM] | AC200 T-L site [3] [µM] | Max Fold T-L site [3] [fold] | AC200 CT-L site [4] [µM] | Max Fold CT-L site [4] [fold] | 20S proteasome activation, classed in words [1] | Max Fold Casp-L site [2] [fold] | Compound | decrease of A53T mutant α-synuclein, in words [5] | potency relative to compound 7 (times less potent) ([1]; 20S proteasome activation, compared with electron poor counterpart 7) [×] | decrease of accumulated A53T α-synuclein ([5]; normalized to vehicle) [%]
1 | 1.5 | 2 | >80 | 3.1 | 2 | 2.8 | 3 | – | – | Clc1ccc2c(c1)N(Cc1ccccc1)c1ccccc1S2 [Compound 1, 10-Benzyl-2-chloro-10H-phenothiazine] | – | – | –
2 | >80 | – | >80 | >80 | – | >80 | – | inactive | – | CC(C)(C)OC(=O)c1ccc(CN2c3ccccc3Sc3ccc(Cl)cc32)cc1 [Compound 3, Tert-butyl 4-((2-chloro-10H-phenothiazin-10-yl)methyl)benzoate] | – | – | –
3 | 1.5 | 4 | 1.3 | 5.4 | 2 | >80 | – | – | 4 | COc1cccc(CN2c3ccccc3Sc3ccc(Cl)cc32)c1 [Compound 4, 2-Chloro-10-(3-methoxybenzyl)-10H-phenothiazine] | – | – | –
4 | 2.4 | 6 | 9.7 | 1.9 | 8 | 2.4 | 6 | – | 4 | COC(=O)c1cccc(CN2c3ccccc3Sc3ccc(Cl)cc32)c1 [Compound 5, Methyl 3-((2-chloro-10H-phenothiazin-10-yl)methyl)benzoate] | – | – | –
5 | >80 | – | >80 | >80 | – | >80 | – | inactive | – | CC(=O)Oc1ccc(CN2c3ccccc3Sc3ccc(Cl)cc32)cc1 [Compound 6, 4-((2-Chloro-10H-phenothiazin-10-yl)methyl)phenyl acetate] | – | – | –
6 | 1.1 | 8 | 1.2 | 1.6 | 8 | 1.1 | 9 | – | 12 | O=[N+]([O-])c1cccc(CN2c3ccccc3Sc3ccc(Cl)cc32)c1 [Compound 7, 2-Chloro-10-(3-nitrobenzyl)-10H-phenothiazine] | – | – | –
7 | >80 | – | >80 | >80 | – | >80 | – | inactive | – | Oc1ccc(CN2c3ccccc3Sc3ccc(Cl)cc32)cc1 [Compound 8, 4-((2-Chloro-10H-phenothiazin-10-yl)methyl)phenol] | no decrease | – | –
8 | >80 | – | >80 | >80 | – | >80 | – | inactive | – | N#CCCCCN1c2ccccc2Sc2ccc(Cl)cc21 [Compound 10, 5-(2-chloro-10H-phenothiazin-10-yl)pentanenitrile] | – | – | –
9 | >80 | – | >80 | >80 | – | >80 | – | inactive | – | NC(=O)CCCCN1c2ccccc2Sc2ccc(Cl)cc21 [Compound 11, 5-(2-Chloro-10H-phenothiazin-10-yl)pentanamide] | – | – | –
10 | >80 | – | >80 | >80 | – | >80 | – | inactive | – | NC(=O)C=CN1c2ccccc2Sc2ccc(Cl)cc21 [Compound 15, 3-(2-chloro-10H-phenothiazin-10-yl)propenamide] | – | – | –
11 | >80 | – | >80 | >80 | – | >80 | – | inactive | – | CN(C)C(=O)CCN1c2ccccc2Sc2ccc(Cl)cc21 [Compound 16, 3-(2-chloro-10H-phenothiazin-10-yl)-N,N-dimethylpropanamide] | – | – | –
12 | – | 3 | – | – | – | – | – | – | – | CN(C(=O)CCN1c2ccccc2Sc2ccc(Cl)cc21)c1ccc(F)cc1 [Compound 18, 3-(2-chloro-10H-phenothiazin-10-yl)-N-(4-fluorophenyl)-N-methylpropanamide] | – | – | –
13 | – | – | – | – | – | – | – | – | – | CCOC(=O)[C@]1(c2ccccc2)N=C(c2ccc(OC)cc2)N(Cc2ccccc2)[C@@H]1c1ccc(NCc2ccccc2)cc1 [TCH-165, reference compound] | – | – | 40

Row | Compound | AC200 CT-L/Casp-L/T-L [1] [µM] | Max Fold CT-L/Casp-L/T-L [1] [fold] | AC200 Casp-L site [2] [µM] | AC200 T-L site [3] [µM] | Max Fold T-L site [3] [fold] | AC200 CT-L site [4] [µM] | Max Fold CT-L site [4] [fold] | 20S proteasome activation, classed in words [1] | Max Fold Casp-L site [2] [fold] | decrease of A53T mutant α-synuclein, in words [5] | potency relative to compound 7 (times less potent) ([1]; 20S proteasome activation, compared with electron poor counterpart 7) [×] | decrease of accumulated A53T α-synuclein ([5]; normalized to vehicle) [%]
14 | Nc1cccc(CN2c3ccccc3Sc3ccc(Cl)cc32)c1 [Compound 9, 3-((2-Chloro-10H-phenothiazin-10-yl)methyl)aniline] | 3.6 | 8 | 3.8 | 9.2 | 10 | 6.5 | 9 | – | 10 | – | 3 | –
15 | O=C(C=CN1c2ccccc2Sc2ccc(Cl)cc21)Nc1ccccc1 [Compound 17, 3-(2-chloro-10H-phenothiazin-10-yl)-N-phenylpropenamide] | 40 | 2.5 | >80 | 80 | 2 | >80 | – | – | – | – | – | –
